Experimental data taken from patent US5843437A, “A82846 antibiotics” (Eli Lilly and Company, priority 1995, dated 1998).
In brackets after ≈: the same amount, converted by molar mass. Entries after “also recorded” stand apart in the source; their conditions may differ.

How the values were obtained:
Streptococcus pneumoniae [1] = test: protection of mice experimentally infected with test organism (Table X); type: in vivo; conditions: sc, read-out: ED50 Value
Protocol: (§1) The A82846 antibiotics have also shown in vivo antimicrobial activity against experimentally-induced infections in laboratory animals. When two doses of test compound were administered to mice experimentally infected with the test organism, the activity observed was measured as an ED50 value [effective dose in mg/kg to protect 50% of the test animals: see Warren Wick, et al., J. Bacteriol. 81, 233-235 (1961)].
(§2) ^a mg/kg × 2; doses administered subcutaneously to mice 1 and 4

Staphylococcus aureus [2] = test: as above; type: in vivo; conditions: sc, read-out: ED50 Value
Protocol: as §1, §2

Streptococcus pyogenes [3] = test: as above; type: in vivo; conditions: sc, read-out: ED50 Value
Protocol: as §1, §2

Propionibacterium acnes = test: MIC against anaerobic bacteria, standard agar-dilution assay (Table IX); type: cell-based; conditions: Cutibacterium acnes; 19 strains; Gram-positive anaerobe; 24-hour incubation; read-out: MIC
[4] = test system: Bacteroides thetaiotaomicron; test: as above; type: cell-based; conditions: Bacteroides thetaiotaomicron; 1 strain; Gram-negative anaerobe; 24-hour incubation; read-out: MIC
Clostridium perfringens = test: microbe, parasite or virus in culture; type: cell-based; conditions: Clostridium perfringens, 24 h
Bacteroides fragilis = test: MIC against anaerobic bacteria, standard agar-dilution assay (Table IX); type: cell-based; conditions: Bacteroides fragilis; 3 strains; Gram-negative anaerobe; 24-hour incubation; read-out: MIC
[5] = human medicine; cited from earlier work
Clostridium septicum = test: MIC against anaerobic bacteria, standard agar-dilution assay (Table IX); conditions: Clostridium septicum, 24 h
Bacteroides vulgatis = test: as above; type: cell-based; conditions: Bacteroides; 1 strain; Gram-negative anaerobe; 24-hour incubation; read-out: MIC
Peptococcus variabilis = test: as above; type: cell-based; conditions: 1 strain; Gram-positive anaerobe; 24-hour incubation; read-out: MIC
[6] = serum half-life after intravenous administration to rats; conditions: rat, in vivo, rats, intravenously
Description: The A82846 antibiotics have excellent in vitro and in vivo activity against Gram-positive pathogenic bacteria. A particularly unexpected attribute of these antibiotics is their long serum half-life.

[7] = test system: Peptococcus asaccharolyticus; test: MIC against anaerobic bacteria, standard agar-dilution assay (Table IX); type: cell-based; conditions: Peptoniphilus asaccharolyticus; 3 strains; Gram-positive anaerobe; 24-hour incubation; read-out: MIC
Peptococcus constellatus = test: as above; type: cell-based; conditions: Streptococcus constellatus; 1 strain; Gram-positive anaerobe; 24-hour incubation; read-out: MIC
[8] = test system: Bacteroides melaninogenicus; test: as above; type: cell-based; conditions: 2 strains; Gram-negative anaerobe; 24-hour incubation; read-out: MIC
Clostridium difficile = test: as above; type: cell-based; conditions: Clostridioides difficile; 19 strains; Gram-positive anaerobe; 24-hour incubation; read-out: MIC
[9] = test system: Fusobacterium necrophorum; test: as above; type: cell-based; conditions: Fusobacterium necrophorum; 1 strain; Gram-negative anaerobe; 24-hour incubation; read-out: MIC
Fusobacterium symbiosum = test: as above; type: cell-based; conditions: Fusobacterium; 1 strain; Gram-negative anaerobe; 24-hour incubation; read-out: MIC
Eubacterium aerofaciens = test: as above; type: cell-based; conditions: Collinsella aerofaciens; 1 strain; Gram-positive anaerobe; 24-hour incubation; read-out: MIC
Streptococcus pneumoniae [10] = test: MIC by standard agar-dilution assay (Table VIII); type: cell-based; conditions: Streptococcus pneumoniae, 20 strains tested, read-out: MIC
Protocol: (§3) The MIC's in Tables VII and VIII were determined by standard agar-dilution assays.

Streptococcus mutans = test: MIC by standard agar-dilution assay (Table VIII); type: cell-based; conditions: Streptococcus mutans, 2 strains tested, read-out: MIC
Protocol: as §3

Streptococcus salivaris = test: MIC by standard agar-dilution assay (Table VIII); type: cell-based; conditions: Streptococcus, 1 strain tested, read-out: MIC
Protocol: as §3

Staphylococcus aureus [11] = test: MIC by standard agar-dilution assay (Table VIII); type: cell-based; conditions: Staphylococcus aureus, 20 strains tested, read-out: MIC
Protocol: as §3

[12] = test system: Staphylococcus epidermidis; test: MIC by standard agar-dilution assay (Table VIII); type: cell-based; conditions: Staphylococcus epidermidis, 20 strains tested, read-out: MIC
Protocol: as §3

[13] = test system: Streptococcus sp. group. D; test: MIC by standard agar-dilution assay (Table VIII); type: cell-based; conditions: Streptococcus, 20 strains tested, read-out: MIC
Protocol: as §3

Streptococcus sanguis = test: MIC by standard agar-dilution assay (Table VIII); type: cell-based; conditions: Streptococcus, 4 strains tested, read-out: MIC
Protocol: as §3

Streptococcus pyogenes [14] = test: MIC by standard agar-dilution assay (Table VIII); type: cell-based; conditions: Streptococcus pyogenes, 12 strains tested, read-out: MIC
Protocol: as §3

Peptococcus prevoti = test: MIC against anaerobic bacteria, standard agar-dilution assay (Table IX); type: cell-based; conditions: 4 strains; Gram-positive anaerobe; 24-hour incubation; read-out: MIC
Bacteroides corrodens = test: as above; type: cell-based; conditions: Eikenella corrodens; 1 strain; Gram-negative anaerobe; 24-hour incubation; read-out: MIC
[15] = test system: Cultures A82846 and A82846.1; test: resistance to antibiotics, antibiotic sensitivity discs on seeded agar plates; conditions: disc 30 μg
Peptococcus magnus = test: MIC against anaerobic bacteria, standard agar-dilution assay (Table IX); type: cell-based; conditions: Finegoldia magna; 3 strains; Gram-positive anaerobe; 24-hour incubation; read-out: MIC
[16] = test system: experimental descending pyelonephritis infection in rats; test: Rat Descending Pyelonephritis Test (Table XI); type: in vivo
Protocol: In one important aspect of their antibacterial activity, the A82846 antibiotics are useful for treating pyelonephritis. […] This test was carried out using a procedure like that described in U.S. Pat. No. 4,208,403.
^a Doses twice per day subcutaneously for 6 days

[17] = test system: Streptococcus faecalis X-66; test: Rat Endocarditis Test, catheter-induced (Table XII); type: in vivo, rats; conditions: 16 days, 20 mg/kg × 28, subcutaneous at 12-hour intervals for 14 days
Protocol: The A82846 antibiotics are also useful in the treatment of endocarditis. […] In this test, rats were prepared by inserting a plastic catheter into the right carotid artery, feeding it down into the […] of the heart and anchoring it securely. The animals were allowed to rest two days, and then the test organism, Streptococcus faecalis X-66, was administered intravenously. The organism titer was approximately 5×10^8 /mL; 0.5 mL was administered.
The compounds were administered subcutaneously 15 minutes prior to infection and at 12-hour intervals for 14 days, a total of 28 treatments. The animals were held 2 days after therapy; then, the hearts were removed, homogenized, diluted and plated on trypticase soy agar. Plates were incubated 48 hours before counting.
^a Catheterinduced endocarditis using Streptococcus faecalis X66
^b Subcutaneous doses at 12hour intervals for 14 days
^c % of animals sacrificed with 4 log drop

[18] = test system: Peptostreptococcus anaerobius; test: MIC against anaerobic bacteria, standard agar-dilution assay (Table IX); type: cell-based; conditions: Peptostreptococcus anaerobius; 8 strains; Gram-positive anaerobe; 24-hour incubation; read-out: MIC
[19] = test system: Peptostreptococcus intermedius; test: as above; type: cell-based; conditions: Peptostreptococcus; 3 strains; Gram-positive anaerobe; 24-hour incubation; read-out: MIC
[20] = 2 mg/kg × 12, subcutaneous twice per day for 6 days
[21] = 5 mg/kg × 12, subcutaneous twice per day for 6 days
[22] = 10 mg/kg × 12, subcutaneous twice per day for 6 days

## CN[C@H](CC(C)C)C(=O)N[C@H]1C(=O)N[C@@H](CC(N)=O)C(=O)N[C@H]2C(=O)N[C@H]3C(=O)N[C@H](C(=O)N[C@H](C(=O)O)c4cc(O)cc(O)c4-c4cc3ccc4O)[C@H](O)c3ccc(c(Cl)c3)Oc3cc2cc(c3O[C@@H]2O[C@H](CO)[C@@H](O)[C@H](O)[C@H]2O[C@H]2C[C@](C)(N)[C@H](O)[C@H](C)O2)Oc2ccc(cc2Cl)[C@H]1O [Vancomycin, vancomycin, reference compound]
Streptococcus pneumoniae [1]
  ED50: 1.52 mg/kg
Staphylococcus aureus [2]
  ED50: 1.3 mg/kg
Streptococcus pyogenes [3]
  ED50: 0.72 mg/kg
Propionibacterium acnes
  MIC: 2 to 16 µg/mL (≈ 1.38 to 11 µM)
[4]
  MIC: 64 µg/mL (≈ 44.2 µM)
Clostridium perfringens
  MIC: 2 µg/mL (≈ 1.38 µM)
Bacteroides fragilis
  MIC: 32 to 64 µg/mL (≈ 22.1 to 44.2 µM)
[5]
  side effects: ototoxicity; also recorded: nephrotoxicity
Clostridium septicum
  MIC: 2 µg/mL (≈ 1.38 µM)
Bacteroides vulgatis
  MIC: 64 µg/mL (≈ 44.2 µM)
Peptococcus variabilis
  MIC: 1 µg/mL (≈ 0.69 µM)
[6]
  half-life: 45 min
[7]
  MIC: 1 µg/mL (≈ 0.69 µM)
Peptococcus constellatus
  MIC: 1 µg/mL (≈ 0.69 µM)
[8]
  MIC: > 128 µg/mL
Clostridium difficile
  MIC: 0.5 to 4 µg/mL (≈ 0.345 to 2.76 µM)
[9]
  MIC: 1 µg/mL (≈ 0.69 µM)
Fusobacterium symbiosum
  MIC: 4 µg/mL (≈ 2.76 µM)
Eubacterium aerofaciens
  MIC: 2 µg/mL (≈ 1.38 µM)
Streptococcus pneumoniae [10]
  MIC: 0.015 to 4 µg/mL (≈ 0.0104 to 2.76 µM)
Streptococcus mutans
  MIC: 0.125 to 2 µg/mL (≈ 0.0863 to 1.38 µM)
Streptococcus salivaris
  MIC: 0.5 µg/mL (≈ 0.345 µM)
Staphylococcus aureus [11]
  MIC: 0.5 to 2 µg/mL (≈ 0.345 to 1.38 µM)
[12]
  MIC: 1 to 2 µg/mL (≈ 0.69 to 1.38 µM)
[13]
  MIC: 1 to 2 µg/mL (≈ 0.69 to 1.38 µM)
Streptococcus sanguis
  MIC: 0.5 to 1 µg/mL (≈ 0.345 to 0.69 µM)
Streptococcus pyogenes [14]
  MIC: 0.5 µg/mL (≈ 0.345 µM)
Peptococcus prevoti
  MIC: 1 to 4 µg/mL (≈ 0.69 to 2.76 µM)
Bacteroides corrodens
  MIC: 64 µg/mL (≈ 44.2 µM)
[15]
  antibiotic resistance: resistant
Peptococcus magnus
  MIC: 0.25 to 1 µg/mL (≈ 0.173 to 0.69 µM)
[16]; [20]
  Percent of Rats Cured: 38%
  Percent of Rats with a 4-Log Reduction in Titer: 75%
[16]; [21]
  Percent of Rats Cured: 38%
  Percent of Rats with a 4-Log Reduction in Titer: 88%
[16]; [22]
  Percent of Rats Cured: 63%
  Percent of Rats with a 4-Log Reduction in Titer: 100%
[17]
  % Cured: 100%
[17]; % of animals sacrificed
  % With 4 Log Drop: 100%
[18]
  MIC: 0.25 to 2 µg/mL (≈ 0.173 to 1.38 µM)
[19]
  MIC: 0.5 to 1 µg/mL (≈ 0.345 to 0.69 µM)
